Data as given in paper PMC9403717, “Ruthenium complexes show potent inhibition of AKR1C1, AKR1C2, and AKR1C3 enzymes and anti-proliferative action against chemoresistant ovarian cancer cell line” (Frontiers in Pharmacology, 2022).
Where a chain is given by its changes, count along the chain named. Where two headings read alike, the source gives them in different places.

Legend:
AKR1C2 [1] = target: T1, AKR1C2 (Homo sapiens, UniProt P52895); design: method as in Bauman et al., 2005; details: ref Bauman et al., 2005; cited from earlier work
T1 construct: made in house
T1 sequence (P52895 1-323): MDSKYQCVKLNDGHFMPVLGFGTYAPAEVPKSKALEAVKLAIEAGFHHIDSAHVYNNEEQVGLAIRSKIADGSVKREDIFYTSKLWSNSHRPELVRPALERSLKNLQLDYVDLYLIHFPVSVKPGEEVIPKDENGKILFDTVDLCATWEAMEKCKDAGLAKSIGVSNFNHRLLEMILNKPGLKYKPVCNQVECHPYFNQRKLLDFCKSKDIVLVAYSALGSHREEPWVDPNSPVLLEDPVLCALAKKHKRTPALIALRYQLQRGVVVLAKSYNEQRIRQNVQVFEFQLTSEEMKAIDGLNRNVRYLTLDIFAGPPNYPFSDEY

COV362 cells [2] = assay: Cell proliferation assay (alamarBlue), chemoresistant ovarian cancer cell line COV362; assay type: cell-based, human; details: for IC50: 48 h incubation
Description: (§1) The cell line COV362 (CVCL_2,420) was originally established from a high-grade ovarian serous adenocarcinoma from a metastatic site in the pleural effusion ([van den Berg-Bakker et al., 1993]) and was purchased from ECACC (ECACC 07071910) as p37 on 13 October 2017. The growth medium for COV362 cells was DMEM (D5546; Sigma–Aldrich GmbH), with 10% FBS (F9665; Sigma–Aldrich GmbH) and 2 mM L-glutamine (G7513; Sigma–Aldrich GmbH). COV362 cells in passages p37 + 12 to p37 + 17 were used in this study and seeded at a concentration of 3.5 cells/ml × 10^4 cells/ml for proliferation studies and at a concentration of 5.3 × 10^5/ml for migration studies. The cell line OVCAR-4 (CVCL_1,627) is a high-grade serous ovarian adenocarcinoma cell line established from a patient refractory to cisplatin ([Johnson et al., 1997]). The cell line was purchased from Merck on 19 March 2021. The growth medium for OVCAR-4 cells was RPMI-1640 (Sigma R5586) supplemented with 2 mM glutamine (G7513; Sigma–Aldrich GmbH), 10% FBS (F9665; Sigma–Aldrich GmbH), 0.25 μg/ml insulin (I9278; Sigma–Aldrich GmbH). OVCAR-4 cells in passages p+6 to p+15 were used in this study and seeded at a concentration of 6 cells/ml × 10^4 cells/ml. The control cell line HIO80 (CVCL_E274) was obtained from Andrew K. Godwin (University of Kansas Medical Center, Kansas, United States) on 20 October 2017 as p+72. It was originally established from ovarian surface epithelium ([Yang et al., 2004]). HIO80 cells were grown in RPMI medium (R5886, Sigma–Aldrich GmbH) supplemented with 10% FBS (F9665; Sigma–Aldrich GmbH), 2 mm L-glutamine (G7513; Sigma–Aldrich GmbH) and 6.6 µg/ml insulin (I9278; Sigma–Aldrich GmbH). HIO80 cells in passages p72 + 8 to p72 + 19 were used in this study and seeded at a concentration of 2 × 10^4 cells/mL. HIO80 in passage +10 was authenticated by short tandem repeats (STR) profiling performed by ATCC on 22 February 2019. Cells were grown in a humidified atmosphere containing 5% CO2 at 37°C. All cell lines were negative for mycoplasma infection which was periodically tested using MycoAlert^TM mycoplasma detection kit (Lonza, Basel, Switzerland).
(§2) The effect of ruthenium compounds on the proliferation of ovarian cancer cell lines COV362 and OVCAR-4 and the control cell line HIO80 was analyzed using the cell proliferation reagent alamarBlue HS (A50101; Thermo Fisher Scientific) following the manufacturer’s instructions.
(§3) Cells were seeded in 96-well plates in 100 µL of medium and allowed to adhere and grow for 24 h. […] Cisplatin and carboplatin purchased from Sigma–Aldrich GmbH (cat. number: PHR1624, lot: LRAB7778) and (cat. number: C2538, lot: MKCK1243) were dissolved in sterile water. Working solutions were prepared by a serial dilution of stock solutions with a culture medium. After the initial incubation, cells were treated with ruthenium complexes, cisplatin, and carboplatin. A range of final concentrations between 0.001 and 300 µM were used for ruthenium complexes and cisplatin, and between 0.001 µM and 1 mM for carboplatin. After 48 h of incubation, plates were incubated with 20 µL of alamarBlue. After 4 h absorbance was measured with a BioTek microplate spectrophotometer at 570 nm, with the reference wavelength set at 600 nm. First, the background value of a well containing the active substance without cells was subtracted, then the average values for duplicates/triplicates were calculated. The absorbance of the well containing only untreated cells was used as a normalization control. The half-maximal […] concentration (IC50) was determined for all ruthenium complexes with a growth-inhibiting effect on cells by constructing a dose-response curve (Graph Pad Prism, Version 8.0).

COV362 cells [3] = assay: Cell migration assay (Ibidi culture inserts), COV362; assay type: cell-based, human; details: 100 μM, 24 and 48 h
Description: Cell migration assay was performed using Ibidi® three-well culture inserts. The inserts were placed in six-well plates. In total, 70 µL of cell suspension was seeded in the inserts and allowed to adhere and grow for 24 h. When the cells formed a confluent monolayer, the inserts were carefully removed and the cells were washed two times with DPBS. Cells were treated with 100 μM (final concentration) of compounds 8, 9, cisplatin, and carboplatin in 2 ml of growth medium. Cells treated with a medium containing the same volume of sterile water or DMSO were used as the controls. Images of cell gaps were taken with Axio Scope A1 Polarized Light Microscope (Zeiss) at the time of treatment, 24 and 48 h after, and analyzed using ImageJ software.

OVCAR-4 cells = assay: Cell proliferation assay (alamarBlue), OVCAR-4; assay type: cell-based, human; details: OVCAR-4; 48 h incubation
Description: as §1, §2, §3

HIO80 cells = assay: Cell proliferation assay (alamarBlue), control cell line HIO80; assay type: cell-based, human; details: 48 h incubation
Description: as §1, §2, §3

AKR1C2 [4] = target: T1, AKR1C2; assay: Inhibition of recombinant AKR1C2, oxidation of 1-acenaphthenol, progress-curve analysis; assay type: biochemical; details: AKR1C2
Description: (§4) To investigate the effect of ten selected ruthenium compounds, we measured their effect on the time course of oxidation of the artificial substrate 1-acenaphtenol by recombinant enzymes AKR1C1–3. The recombinant enzymes AKR1C1–AKR1C3 were prepared as described previously ([Brozic et al., 2006]). Since the artificial substrate is racemic, the oxidation follows a double exponential pattern as described previously ([Traven et al., 2015]). The in vitro catalytic activity of AKR1C1–3 enzymes was determined spectrophotometrically by monitoring the increase in NADH absorbance at 340 nm (ε(λ340) = 6220 M^−1cm^−1) in the presence of the substrate 1-acenaphthenol. Enzymatic reactions (300 µL) were performed in 100 mm potassium phosphate buffer (pH 9.0), 0.005% (v/v) TritonX-114, 5% (v/v) DMSO, containing 2.3 mm NAD^+ and 1-acenaphthenol at final concentrations of 90, 180, and 250 µM for AKR1C1, AKR1C2, and AKR1C3, respectively. A total of 5 µL of a tested compound in DMSO was added to the reaction mixture. The final concentrations of the tested compounds ranged from 1 to 200 μM, depending on the extent of inhibition (Supplementary Data). The reaction was started by adding 15 µL of AKR1C1, AKR1C2, or AKR1C3 dissolved in 1x PBS (pH 7.3) at final concentrations of 0.11, 0.16, and 1.5 µM, respectively. AKR1C1–3 activity was measured at 37°C for 3 h without shaking using a PowerWave XS microplate reader (Biotek; Winooski, VT, United States). Measurements at seven different concentrations were performed in duplicates or triplicates (Supplementary Figures S2). To mechanistically explain all the obtained progress curves for each ruthenium complex on each enzyme by a common reaction scheme, we extended the originally proposed scheme so that the interaction of the ruthenium complex with apo- and holoenzyme was allowed to be rapid and followed by a slow irreversible association of a second ruthenium complex molecule. However, the affinity of the Ru complexes for the apoenzymes was much lower so this part was excluded from the proposed kinetic model for clarity (Figure 4).
(§5) FIGURE 4 Reaction scheme for the oxidation of 1-acenaphtenol by AKR1C1-3 and its inhibition by ruthenium compounds. E represents apoenzyme, E-NAD and E-NADH represent holoenzyme with bound NAD^+ and NADH, respectively. A and B are enantiomers of substrate 1-acenaphtenol. Symbols which include I (ruthenium compound) represent holoenzyme in complex with one or two inhibitor molecules. KNAD, KNADH, and K2-3 are equilibrium constants and k+2–3 are second-order association rate constants for the binding of the second inhibitor molecule to the enzyme. The progress curves for each enzyme in the presence of ruthenium complexes were analyzed by the WEB server ENZO (https://enzo.cmm.ki.si/) designed exactly for such purposes ([Bevc et al., 2011]).

AKR1C3 [5] = target: T2, AKR1C3 (Homo sapiens, UniProt P42330); assay: Inhibition of recombinant AKR1C3, oxidation of 1-acenaphthenol, progress-curve analysis; assay type: biochemical; details: AKR1C3
T2 construct: made in house
T2 sequence (P42330 1-323): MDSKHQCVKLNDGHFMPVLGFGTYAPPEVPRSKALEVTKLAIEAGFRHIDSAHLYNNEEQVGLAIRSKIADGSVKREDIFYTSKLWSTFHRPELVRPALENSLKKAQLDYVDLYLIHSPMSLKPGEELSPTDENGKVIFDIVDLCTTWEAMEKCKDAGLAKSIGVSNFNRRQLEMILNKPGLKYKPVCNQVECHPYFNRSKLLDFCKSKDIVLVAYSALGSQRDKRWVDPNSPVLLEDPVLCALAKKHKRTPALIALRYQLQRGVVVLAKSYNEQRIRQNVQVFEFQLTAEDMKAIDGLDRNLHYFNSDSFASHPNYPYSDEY
Description: as §4, §5

AKR1C1 = target: T3, AKR1C1 (Homo sapiens, UniProt Q04828); assay: Inhibition of recombinant AKR1C1, oxidation of 1-acenaphthenol, progress-curve analysis; assay type: biochemical
T3 construct: made in house
T3 sequence (Q04828 1-323): T1 sequence (P52895 1-323) with V38T, H47R, V54L, S87C, M151V, H170R, L172Q
Description: as §4, §5

AKR1C3 [6] = target: T2, AKR1C3; design: method as in Traven et al., 2015; details: ref Traven et al., 2015; cited from earlier work
AKR1C3 [7] = target: T2, AKR1C3; design: method as in Qiu et al., 2007; details: ref Qiu et al., 2007; cited from earlier work
MCF-7 = details: ref Kljun et al., 2016; cited from earlier work
[8] = irreversible binding of second inhibitor molecule to E-NAD-I
[9] = reversible binding to holoenzyme E-NAD, read-out: K2

In the case of `C[C@H](CCC(=O)O)[C@H]1CC[C@H]2[C@@H]3CC[C@@H]4CC(=O)CC[C@]4(C)[C@H]3CC[C@]12C` [5β-cholanic acid-3-one], the Ki (AKR1C2 [1]) is given as 0.021 µM.

In the case of `N.N.O=C([O-])C1(C(=O)[O-])CCC1.[Pt+2]` [Carboplatin, reference compound], the IC50 (COV362 cells [2]) is reported as 272 µM, the “effect on cell migration (in words)” value (COV362 cells [3]) is reported as “Significant cell migration was observed” and the IC50 (OVCAR-4 cells) is reported as 73 µM. The IC50 (HIO80 cells) was 131 µM.

For `N.N.[Cl][Pt][Cl]` [Cisplatin, reference compound], the IC50 (COV362 cells [2]) was 13.6 µM, the IC50 (OVCAR-4 cells) was 4.16 µM and the IC50 (HIO80 cells) was 6.96 µM.

For `Oc1c(I)cc(Cl)c2cccnc12` [Clioquinol, reference compound], the “fold lower IC50 value compared to Ru-pta complex 8” value (COV362 cells [2]) was 1.9 fold and the IC50 (COV362 cells [2]; Homo sapiens) was 20.1 µM.

For `CN(C)c1ccc(C(=O)C=C([O][Ru+][PH]23CN4CN(CN(C4)C2)C3)C(F)(F)F)cc1.Cc1ccc(C(C)C)cc1.F[P-](F)(F)(F)(F)F` [Compound 4, (η^6-p-cymene)(4,4,4-trifluoro-1-(4-(dimethylamino)phenyl)-1,3-butandionato)(pta)ruthenium(II) hexafluorophosphate], the “k+2” value (AKR1C2 [4]; [8]) was 1.9 M⁻¹ s⁻¹, the Ki (AKR1C2 [4]; [9]) was 340 µM and the “k+2” value (AKR1C3 [5]; [8]) was 1.8 M⁻¹ s⁻¹. For the same compound, the Ki (AKR1C3 [5]; [9]) was 441 µM, the “k+2” value (AKR1C1; [8]) was 1.4 M⁻¹ s⁻¹ and the Ki (AKR1C1; [9]) was 86.9 µM.

In the case of `Cc1ccc(C(C)C)cc1.Cc1ccc(C(C)C)cc1.[Cl][Ru][Cl].[Cl][Ru][Cl]` [Compound P1, [(η^6-p-cymene)RuCl(μ-Cl)]2], the “Ki values (in words)” value (AKR1C3 [6]) is given as “nM Ki values”.

In the case of `CC1(C)CC[C@@]2(CC[C@H]3[C@@H]4CCc5cc(C(N)=O)ccc5[C@H]4CC[C@@]32C)OC1=O` [EM1404], the Ki (AKR1C3 [7]) is listed as 0.0069 µM.

For `O=[N+]([O-])c1ccc(O)c2ncccc12` [Nitroxoline, reference compound], the “fold lower IC50 compared to Ru-chlorido complex 9” value (COV362 cells [2]) was 4 fold and the IC50 (COV362 cells [2]; Homo sapiens) was 6.6 µM.

For `Cc1ccc(C(C)C)cc1.[Cl][Ru]([Cl])[PH]12CN3CN(CN(C3)C1)C2` [RAPTA-C, reference compound], the IC50 (COV362 cells [2]) was > 300 µM.

For `[O-][n+]1ccccc1S` [pyrithione], the “IC50 values (in words)” value (MCF-7) is given as “low µM”.
